Calls of active or inactive are those of the source.
How the values were obtained:
Type in all cases: functional, organism-based
Escherichia coli = experiment: Antibacterial activity against Escherichia coli at 50 ug/disk
Aspergillus ruber = experiment: Antifungal activity against Eurotium rubrum at 50 ug/disk
Priestia megaterium = experiment: Antibacterial activity against Bacillus megaterium at 50 ug/disk
Mycotypha microspora = experiment: Antifungal activity against Mycotypha microspora at 50 ug/disk
Microbotryum violaceum = experiment: […] activity against Microbotryum violaceum at 50 ug/disk

Measured: Activity

CC1=C[C@@H]2[C@@H](C(C)C)CC=C(C)[C@@H]2C[C@H]1O
inactive: Escherichia coli | Aspergillus ruber | Priestia megaterium | Mycotypha microspora | Microbotryum violaceum

CC(=O)O[C@@H]1C[C@H]2C(C)=CC[C@H](C(C)C)[C@H]2C=C1C
inactive: Escherichia coli | Aspergillus ruber | Priestia megaterium | Mycotypha microspora | Microbotryum violaceum

Source: ChEMBL document CHEMBL1151984, “Dietary derived sesquiterpenes from Phyllodesmium lizardensis” (J Nat Prod, 2009)
